Common to all, as to type: cell-based, human
One series has as its system IL1β. As to the kind of experiment: IL1β mRNA expression by q-PCR. To be noted: U87MGsiFAT1 vs siControl. How it is done: Cell Culture and siRNA Transfection: The human glioma cell lines U87MG, U373, A172, T98G, GOS3 and SW1088 were obtained from ATCC; Rockville, Md., cultured in DMEM (Sigma-Aldrich, Switzerland) supplemented with 10% (v/v) FCS (Sigma-Aldrich), 3.7 g/l sodium bicarbonate (Sigma-Aldrich), Ciprofloxacin 10 μg/ml and 5% CO2 at 37° C. For transfection, 2×10^5 cells were seeded per 25 cm^2 flask. After 24 hrs, cells were transfected with FAT1 siRNA and universal medium GC control siRNA (Invitrogen) according to the manufacturer's protocol with a final concentration of 20 nM of siRNA using LIPOFECTAMINE 2000 (Invitrogen) and Opti-Mem media (Invitrogen). After 4 hrs of siRNA transfection, the media was supplemented with DMEM containing 2×FCS. […] Photomicrographs of the cells were taken using an inverted phase contrast microscope (Nikon TMS, Phase contrast microscope, Japan). For simultaneous knockdown of FAT1 and PDCD4, siRNA from Dharmacon were used. Transfection was performed as earlier with 50 nM of FAT1 siRNA along with 50 nM of PDCD4 siRNA or 50 nM of control siRNA.
cDNA Synthesis and Quantitative PCR: Total RNA was isolated from cells at appropriate time point (vide supra) using TRIzol reagent (Invitrogen), quantified using a Nanodrop ND-1000 spectrophotometer.

The next series concerns A172 cells. As to the kind of experiment: Invasion assay, matrigel. To be noted: A172siFAT1 vs siControl, P<0.01. Here is the method:
(§1) Migration and Invasion Assays: The modified Boyden chamber/matrigel assay was performed according to the manufacturer's directions (BD Biosciences, Bedford, Mass.). For in vitro migration assays, chambers with control inserts that lacked the matrigel coating were used. Transfections were carried out in U87MG and A172 cells and 48 hrs later 3×10^4 U87MG cells/well and 7×10^4 A172 cells/well were resuspended in serum-free DMEM and seeded in triplicate in matrigel-coated (1 mg/ml; BD Biosciences) and uncoated control inserts (8-μm pore-size, BD Bioscience, Bedford, Mass.). The remaining protocol was done as previously described.

The subject of series [1] is U87MG cells. As to the kind of experiment: Invasion assay, matrigel. To be noted: U87MGsiFAT1 vs siControl, P<0.01. Here is the method:
as §1

The next series relates to PDCD4. As to the kind of experiment: Western blot PDCD4 protein. To be noted: U87MG, A172, U373MG and T98G, vs siControl. Here is the method:
(§2) Western Blotting Analyses: Cells were lysed in triple detergent buffer containing protease and phosphatase inhibitors (Sigma Aldrich), lysates were quantified by BCA kit (Pierce, Thermo Fisher Scientific, Rockford, Ill. USA) and electrophoresed in 10% SDS-PAGE and electroblotted on nitrocellulose membrane (Millipore, Billerica, Mass., USA). Membrane was blocked with 5% bovine serum albumin (BSA) in 1×TBS at 4° C. for overnight. Primary and secondary antibody was diluted in 5% BSA and 0.1% tween-20 in 1×TBS. Blot was incubated in primary antibody overnight at 4° C. followed by secondary antibody incubation for 2 hrs at room temperature. Blot was developed by BCIP-NBT (Promega, Madison, Wis., USA) and captured using Alpha Imager EP software.
On the technique in general: Immunoblotting shows a protein as a band on a membrane.

Another series has as its system phospho-c-jun. The series is described as follows: Western blot phospho-c-jun (Ser63). To be noted: U87MGsiFAT1 vs siControl. Here is the method:
as §2

The subject of the next series is ECM protease activity. The series is described as follows: Gelatin zymography. To be noted: conditioned media of U87MG cells, 72 hrs, vs siControl. Here is the method: Gelatin Zymography: U87MG cells (2.5×10^5 cells/flask) were plated into 25 cm^2 flask. Transfection was performed on day 1 and after 72 hrs, the conditioned medium was collected, clarified by centrifugation, concentrated by Centricon YM-30 (10:1 concentration; Millipore, Billerica, Mass., USA), and separated in non-reducing polyacrylamide gels containing 0.1% (wt/vol) gelatin. The gel was incubated with 1× Zymogram renaturing buffer for 30 min at room temperature, 1× Zymogram developing buffer for 30 min at room temperature, and 1× Zymogram developing buffer at 37° C. for overnight. The gel was then stained for protein with 0.25% (w/v) Coomassie Blue R-250 and then destained with Coomassie R-250 destaining solution (Methanol:Acetic acid:Water (50:10:40). Proteolysis was detected as a white zone in a dark field.

Series [2] has as its system U87MG cells. As to the kind of experiment: In vitro Scratch Assay of cell migration. How it is done:
FIGS. 14A to 14D: Effect of NS-398 and FAT1 knockdown simultaneously on Cell Migration by In-vitro Scratch Assay. The in vitro Scratch Assay was performed at 72 hours after culturing cells as follows: At Day 0, 5,000 U87MG cells are plated per well of a 96 well plate. […] (C) Assay of cell migration by the Modified Boyden Chamber Assay under conditions of normoxia and hypoxia. (D) Quantitation of data from (C).
The Scratch Assay is performed at 72 hours after treatment. A scratch is made on the culture surface using a sterile 10 μl tip and cells were allowed to grow. Images were captured after every 3 hrs to monitor the closure of the wound in the culture surface for next 24 hrs.

“Also recorded” adds a separate entry of the source. Where only a bound is given, the exact number is not on record here.

On to “siFAT1: FAT1 specific siRNA (Invitrogen), FAT Stealth RNAi siRNA-I (HSS103567), used for further experiments (sense CCCAACACACCUGUGGUCAUGGUAA; antisense UUACCAUGACCACAGGUGUGUUGGG; Stealth modification, chemistry not fully specified; listed as Homo sapiens)”, for which the “reduction in IL1β mRNA expression” value in the series on IL1β is approximately 10 fold. Besides, the reduction in invasion is more than 1.5 fold in the series with A172 cells and more than 2 fold in the series with U87MG cells [1]. Also, the PDCD4 protein level entry with PDCD4 is given as “increased”. In addition, in the series with phospho-c-jun, the “c-jun phosphorylation (p-c-jun level)” value is “significantly decreased; also recorded: significant reduction”. Besides, in the series on ECM protease activity, the ECM protease activity entry is given as “decreased; also recorded: reduced protease activity”. In the series on U87MG cells [2] (Scratch Assay at 72 hours after treatment), the “inhibition of cell migration” value is given as “about 50%”. For the same substance, in the series on U87MG cells [2] (scratch and modified Boyden chamber assays, normoxic or hypoxic conditions (FIG. 14)), the “migration ability of cells” value was “reduced”.

(Values after patent US9556437B2, “FAT1 gene in cancer and inflammation” (DEPARTMENT OF BIOTECHNOLOGY (DBT), priority 2012, dated 2017).)
